# Test results reported in patent publication US9801372B2, “Polymers for increasing the soil mobility of low-solubility insecticides” (BASF SE, priority 2009, dated 2017).
# Procedure: First, a calibration with the active ingredient to be determined is performed at a suitable wavelength in different concentrations. To study the solubilization with a polymeric solubilizer, a 1% by weight polymer solution is prepared and the UV absorption is measured at said wavelength. The polymer solution is saturated with the active ingredient to be analyzed and equilibrated for 24 h. After centrifugation of the solution and UV analysis of the supernatant at said wavelength, after subtracting the polymer absorption over the calibration curve, the dissolved active ingredient concentration can be concluded.
# The fipronil concentration was determined by means of UV spectroscopy at 278 nm; to this end, the absorption of the polymer (1% by weight in water) was first determined alone. Subsequently, an excess of fipronil was added and the mixture was stirred at room temperature overnight. The centrifuged solution was analyzed once again at 278 nm in the UV instrument. After subtracting the appropriate solubilizer spectrum and comparing by means of a fipronil calibration curve produced beforehand, it was possible to determine the concentration of dissolved fipronil.
molecule,measurement,value
Triton X-100,Fipronil solubility in ppm,13 ppm
N#Cc1nn(-c2c(Cl)cc(C(F)(F)F)cc2Cl)c(N)c1[S+]([O-])C(F)(F)F (centres unmarked) [Fipronil],Fipronil solubility in ppm,2.2 ppm
